From ChEMBL document CHEMBL1201862, “PubChem BioAssay data set” (2004)
Values joined by “and” are separate entries in the source; they are usually repeats but may differ in a detail not shown here. Identical values can stand only once.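 Interpolation was linear, between the two tested concentrations surrounding the appropriate level; five concentrations were tested over 48 hours in 96-well plates. At the GI50, growth is halved.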 Active and inactive are the calls of the source. Rule as the data show it: active = GI50 up to about 1.1 µM and inactive = higher.

How the values were obtained:
Experiment in all cases: inhibition of tumour cell growth, NCI panel, 48 h
BT-549 = test system: BT-549
Hs-578T = test system: Hs-578T
HT-29 = test system: HT-29
SF-295 = test system: SF-295
OVCAR-8 = test system: OVCAR-8
UACC-62 = test system: UACC-62
RXF 393 = test system: RXF 393
CAKI-1 = test system: CAKI-1
DU-145 = test system: DU-145
SK-OV-3 = test system: SK-OV-3
ACHN = test system: ACHN
K562 = test system: K562
UACC-257 = test system: UACC-257
U-251 = test system: U-251
MCF7 = test system: MCF7
A549 = test system: A549
HCC 2998 = test system: HCC 2998
MDA-MB-435 = test system: MDA-MB-435
SK-MEL-2 = test system: SK-MEL-2

Structure (SMILES) | GI50 (BT-549) | GI50 (Hs-578T) | GI50 (HT-29) | GI50 (SF-295) | GI50 (OVCAR-8) | GI50 (UACC-62) | GI50 (RXF 393) | GI50 (CAKI-1) | GI50 (DU-145) | GI50 (SK-OV-3) | GI50 (ACHN) | GI50 (K562) | GI50 (UACC-257) | GI50 (U-251) | GI50 (MCF7) | GI50 (A549) | GI50 (HCC 2998) | GI50 (MDA-MB-435) | GI50 (SK-MEL-2)
NC(=O)C(C(N)=O)=C(O)/C(O)=C/C(=O)c1ccccc1 | 48.5 µM (inactive) | > 100 µM (inactive) | > 100 µM (inactive) | > 100 µM (inactive) | > 100 µM (inactive) | > 100 µM (inactive) | > 100 µM (inactive) | > 100 µM (inactive) | > 100 µM (inactive) | > 100 µM (inactive) | > 100 µM (inactive) | 0.0652 µM (active) | > 100 µM (inactive) | > 100 µM (inactive) | 0.849 µM (active) | > 100 µM (inactive) | > 100 µM (inactive) | > 100 µM (inactive) | > 100 µM (inactive)
O=C1C(/C=C/c2ccc(Cl)cc2)=NNC2N1N=C1NC(=O)C3(NN12)c1ccccc1-c1ccccc13 (configuration not stated) | > 100 µM (inactive) | 65.6 µM (inactive) | 66.2 µM (inactive) | > 100 µM (inactive) | > 100 µM (inactive) | > 100 µM (inactive) | > 100 µM (inactive) | > 100 µM (inactive) | > 100 µM (inactive) | > 100 µM (inactive) | > 100 µM (inactive) | 35.4 µM (inactive) | > 100 µM (inactive) | > 100 µM (inactive) | 26.5 µM (inactive) | > 100 µM (inactive) | > 100 µM (inactive) | 60.8 µM (inactive) | > 100 µM (inactive)
O=S(=O)(Nc1ccccc1S(=O)(=O)c1ccccc1)c1ccccc1 | 63.1 µM (inactive) | 51.9 µM (inactive) | 48 µM (inactive) | 94.4 µM (inactive) | 68.5 µM (inactive) | 49 µM (inactive) | > 100 µM (inactive) | > 100 µM (inactive) | 87.9 µM (inactive) | > 100 µM (inactive) | 82.2 µM (inactive) | 61.5 µM (inactive) | 73.1 µM (inactive) | 41.1 µM (inactive) | > 100 µM (inactive) | 67.1 µM (inactive) | 44.6 µM (inactive) | > 100 µM (inactive) | 64.3 µM (inactive)
COc1ccc(C2=Nn3c(nc4sc(-c5ccccc5)cc4c3=O)SC2)cc1 | > 100 µM (inactive) | 34.4 µM (inactive) | > 100 µM (inactive) | > 100 µM (inactive) | > 100 µM (inactive) | > 100 µM (inactive) | > 10 µM (inactive) | > 100 µM (inactive) | > 100 µM (inactive) | > 100 µM (inactive) | 7.35 µM (inactive) | > 10 µM (inactive) | > 100 µM (inactive) | > 100 µM (inactive) | > 100 µM (inactive) | > 100 µM (inactive) | > 100 µM (inactive) | > 100 µM (inactive) | –
COc1ccc2oc(=N)c(C(=O)Nc3cccc4ccccc34)cc2c1 | 55.7 µM (inactive) | 30.2 µM (inactive) | 15.1 µM (inactive) | 5.41 µM (inactive) | – | 2.47 µM (inactive) | 4.69 µM (inactive) | 29.5 µM (inactive) | 24 µM (inactive) | 15.5 µM (inactive) | 25.5 µM (inactive) | 0.526 µM (active) | 32 µM (inactive) | 13 µM (inactive) | 5.7 µM (inactive) | 25.1 µM (inactive) | 58.7 µM (inactive) | 0.319 µM (active) | 18.8 µM (inactive)
Cc1cc2c(cc1C)N1C(Cl)=C3CCCCC3=C(C#N)C1N2 (configuration not stated) | 2.45 µM (inactive) | 7.85 µM (inactive) | 2.55 µM (inactive) | 20.4 µM (inactive) | 11.5 µM (inactive) | 2.94 µM (inactive) | 14 µM (inactive) | 5.04 µM (inactive) | 19.3 µM (inactive) | 18.6 µM (inactive) | 3.16 µM (inactive) | 3.6 µM (inactive) | 8.18 µM (inactive) | 9.42 µM (inactive) | 4.16 µM (inactive) | 19.9 µM (inactive) | 8.69 µM (inactive) | 6.03 µM (inactive) | 14.6 µM (inactive)
c1ccc2c(-c3cnc(-c4c[nH]c5ccccc45)cn3)c[nH]c2c1 | > 100 µM (inactive) | 57.8 µM (inactive) | – | 20.2 µM (inactive) | 39.4 µM (inactive) | 32.8 µM (inactive) | 26.7 µM (inactive) | 74.8 µM (inactive) | > 100 µM (inactive) | 49.1 µM (inactive) | 65.5 µM (inactive) | 18.8 µM (inactive) | 43.4 µM (inactive) | 49.7 µM (inactive) | 6.61 µM (inactive) | > 100 µM (inactive) | 42.6 µM (inactive) | 24.9 µM (inactive) | 70.3 µM (inactive)
CN(C)CCNc1ccc(CO)c2oc3ccc(O)cc3c(=O)c12 | 14.6 µM (inactive) | 14 µM (inactive) | 11.3 µM (inactive) | 14.2 µM (inactive) | 7.14 µM (inactive) | 11.5 µM (inactive) | 12.6 µM (inactive) | 21.6 µM (inactive) | 20.1 µM (inactive) | 14.4 µM (inactive) | 7.45 µM (inactive) | 10.2 µM (inactive) | 12.8 µM (inactive) | 12.4 µM (inactive) | 4.83 µM (inactive) | 14.6 µM (inactive) | 14 µM (inactive) | 13.8 µM (inactive) | 16.6 µM (inactive)
CC(=O)c1cccn1/C=C(\OC(=O)OC(C)(C)C)c1ccc[nH]1 | 60.7 µM (inactive) | > 100 µM (inactive) | – | 39.4 µM (inactive) | 99.5 µM (inactive) | 99.1 µM (inactive) | 33.8 µM (inactive) | 22 µM (inactive) | 58.9 µM (inactive) | – | > 100 µM (inactive) | 59.6 µM (inactive) | > 100 µM (inactive) | 64.4 µM (inactive) | 76.4 µM (inactive) | 60 µM (inactive) | > 100 µM (inactive) | > 100 µM (inactive) | > 100 µM (inactive)
CC(C)(C)n1c(=O)[nH]n(C2NN=Cc3cccc4cccc2c34)c1=O (configuration not stated) | 21.9 µM (inactive) | 39.4 µM (inactive) | 20.4 µM (inactive) | – | 40.3 µM (inactive) | 23.9 µM (inactive) | 10.9 µM (inactive) | 27.5 µM (inactive) | > 100 µM (inactive) | 50 µM (inactive) | – | 17.9 µM (inactive) | 54.3 µM (inactive) | 44.2 µM (inactive) | 30.6 µM (inactive) | 18.7 µM (inactive) | 39.5 µM (inactive) | 34.3 µM (inactive) | 32.1 µM (inactive)
O=S(=O)(O)c1ccc2c(/N=N/c3ccc(S(=O)(=O)O)c4ccccc34)c(O)c(S(=O)(=O)O)cc2c1 | > 100 µM (inactive) | > 100 µM (inactive) | > 100 µM (inactive) | > 100 µM (inactive) | > 100 µM (inactive) | > 100 µM (inactive) | > 100 µM (inactive) and 63.5 µM (inactive) | > 100 µM (inactive) | > 100 µM (inactive) | > 100 µM (inactive) | > 100 µM (inactive) | > 100 µM (inactive) | > 100 µM (inactive) | > 100 µM (inactive) | > 100 µM (inactive) | – | > 100 µM (inactive) | > 100 µM (inactive) | > 100 µM (inactive)
O=c1/c(=C/c2ccc(-c3ccc(Cl)cc3Cl)o2)sc2n1[C@@H](c1ccc(Cl)cc1)C=C(c1cc(F)c(Cl)cc1Cl)N=2 | 45.8 µM (inactive) | 29.6 µM (inactive) | 39.8 µM (inactive) | 53.2 µM (inactive) | 45.7 µM (inactive) | 25 µM (inactive) | 31.2 µM (inactive) | > 100 µM (inactive) | 65.2 µM (inactive) | 19.2 µM (inactive) | > 100 µM (inactive) | 38.8 µM (inactive) | 34.6 µM (inactive) | 31.5 µM (inactive) | 33.5 µM (inactive) | > 100 µM (inactive) | 12.8 µM (inactive) | 54.3 µM (inactive) | 40.5 µM (inactive)
C=CCc1cccc2cc(C(=O)Nc3nc(C45CC6CC(CC(C6)C4)C5)cs3)c(=O)oc12 | 70 µM (inactive) | 16.4 µM (inactive) | 49.8 µM (inactive) | 16.3 µM (inactive) | 85.9 µM (inactive) | – | 6.08 µM (inactive) | 20.6 µM (inactive) | 44.6 µM (inactive) | – | 17 µM (inactive) | 27.4 µM (inactive) | 32.8 µM (inactive) | 20.2 µM (inactive) | > 100 µM (inactive) | 49.9 µM (inactive) | 33 µM (inactive) | 51.5 µM (inactive) | –
C=C(Cl)/C(=C\Cl)CCC(Br)C(C)C (configuration not stated) | > 100 µM (inactive) | > 100 µM (inactive) | > 100 µM (inactive) | > 100 µM (inactive) | – | 51.8 µM (inactive) | 77.3 µM (inactive) | > 100 µM (inactive) | > 100 µM (inactive) | > 100 µM (inactive) | > 100 µM (inactive) | 36.2 µM (inactive) | 58.5 µM (inactive) | > 100 µM (inactive) | 48.9 µM (inactive) | > 100 µM (inactive) | > 100 µM (inactive) | 81.5 µM (inactive) | > 100 µM (inactive)
CCCCCCC(O)C(O)CCC(O)C1CCC(CCCCC(O)CC2=CC(C)OC2=O)O1 (configuration not stated) [ACETOGENINS] | 23.4 µM (inactive) | 2.23 µM (inactive) | 2.33 µM (inactive) | 1.83 µM (inactive) | 2.18 µM (inactive) | 2.06 µM (inactive) | 5.87 µM (inactive) | 2.2 µM (inactive) | 6.19 µM (inactive) | – | 1.19 µM (inactive) | 1.82 µM (inactive) | 1.86 µM (inactive) | 3.54 µM (inactive) | 1.26 µM (inactive) | 1.79 µM (inactive) | 15.9 µM (inactive) | 17.4 µM (inactive) | 2.99 µM (inactive)
